Laboratory results taken from patent US9889108B2, “Compositions and methods for treating non-alcoholic steatohepatitis” (priority 2013, dated 2018).

How the values were obtained:
CYP450 = conditions: at free concentrations observed in humans; cited from earlier work
[1] = Absorption, distribution and metabolites after oral 14C-EPA-E in rats; format: in vivo, rat
Experimental: (§1) EPADEL is a product containing ethyl all-cis-5,8,11,14,17-eicosapentaenoate (EPA-E), one of the n-3 essential fatty acids. The preclinical absorption, distribution, metabolism and excretion (ADME) characteristics of EPA-E have been determined primarily in rats.
After administration of ^14C-EPA-E into the ligated intestine of rats, the residual radioactivity in the intestine at 24 hours was only 4.6% of the administered dose. Radioactivity transferred to the plasma and lymph was mainly detected in the triglyceride (TG) fraction in the early phase after dosing, while distribution to the free fatty acid (FFA) fraction was slight at all timepoints. […] Orally administered EPA-E was primarily incorporated in adrenal gland lipids as cholesterol esters of the fatty acids eicosapentaenoic acid (EPA), docosapentaenoic acid (DPA) and docosahexaenoic acid (DHA).
After oral administration of ^14C-EPA-E to the rat, EPA, DPA and DHA were detected as metabolites in the total lipid fraction of the plasma and tissues (liver, fat, heart and brain). […] In the total lipid fraction of the liver, the radioactivity originated mainly from EPA, DPA and DHA. Thus, it is considered that EPA, DPA and DHA are the predominant metabolites of ^14C-EPA-E in tissues, as constituent fatty acids of the total lipid fraction.

[2] = Excretion of radioactivity after single oral administration (rats); format: in vivo, rat
Experimental: as §1
Consequently, when EPA-E is administered orally to humans, it would appear that it is well absorbed, even though the unchanged ethyl ester form is not detected, and the free form (EPA) is only detected at a very low level, in the blood. Due to this absorption mechanism of essential fatty acids, the administered EPA-E exists as a blood-constituent fatty acid in the total lipids. […] Radioactivity was primarily excreted in expired air (44%) after single oral administration at 30 mg/kg EPA-E with minimal excretion in bile and urine (˜3%) and approximately 20% excreted in feces.
Renal excretion was the elimination route for several minor highly polar metabolites (<0.4%), but EPA-E, EPA, DPA or DHA were not detected in the urine. In feces, EPA-E and EPA, evidently derived from the unabsorbed drug, were detected; however, no DPA or DHA was detected in the feces.

arteries in rabbits = assay: Elasticity of arteries in rabbits; format: in vivo, rabbit
subjects with NASH = assay: Phase II double blind, placebo-controlled clinical trial of EPA-E in subjects with NASH; format: in vivo, human; parameters: Efficacy, proportion of responders (NAS Score ≦3 or improvement of ≧2 across at least 2 of NAS components): dose or concentration left out as unconfirmed
Text: The non-alcoholic fatty liver disease activity score (NAS) is defined as the unweighted sum of the values for steatosis (ranging from 0-3), lobular inflammation (ranging from 0-3) and ballooning (ranging from 0-2), thereby providing a range of NAS score of from 0 to 8. […] Alternatively, patients can show an improvement in NAS by a value of ≧2 across at least two of the NAS components, together with no worsening in fibrosis. Alternatively, patients can show an improvement in NAS score by ≧3, 4, 5, 6, 7 or 8. This example provides the protocol used for an ongoing phase II clinical trial, double blind, placebo-controlled study to investigate the safety, efficacy, and pharmacokinetic profile of two doses of EPA-E in subjects with NASH. Up to 70 subjects were enrolled into each treatment arm, for a total of 210 subjects to be enrolled. Block randomization using an interactive voice response system (IVRS) was used to assign patients in a 1:1:1 ratio to two active doses and placebo. Patients were stratified at randomization by presence or absence of diabetes. Patients with diabetes comprised no more than 25% of the total number of patients enrolled. […] Subjects were required to have a liver biopsy with proven NASH in the 6 month period prior to screening. The Pharmacokinetic profile for EPA-E was evaluated in a subgroup of subjects in specified sites. Subjects were approached prior to providing informed consent to determine if they will participate in the PK group subset. Approximately 36 subjects participated in the PK subset evaluation (12 from each treatment arm, to include 6 males and 6 females). In order to support the trial, EPA-E capsules and matching placebo capsules were prepared. EPA-E capsule is an oval soft gelatin capsule containing 300 mg of EPA-E as an active ingredient. […] These capsules are unidentifiable as EPA-E capsules or placebo capsules. Subjects were administered orally 3 capsules 3 times daily, immediately after meals. 1. Diagnosis of definite NASH by the central reading pathologists: • Liver biopsy slides will be submitted for evaluation by the central pathologists according to one of the following criteria: • a. Previous liver biopsies must have been obtained within 6 months prior to informed consent and should be judged by the local pathologist as showing NAS ≧4 with a minimum score of 1 each for steatosis and lobular inflammation plus […] ballooning OR at least 1a sinusoidal fibrosis AND a finding of possible or definite steatohepatitis • b. For liver biopsies performed after informed consent is obtained, all slides will be submitted for reading by the central pathologists in conformity with the independent pathology review charter (IPRC)

hamsters = assay: Lipid lowering in hamsters; format: in vivo, hamster
platelets from humans = assay: Platelet anti-aggregation, human platelets; format: cell-based
[3] = tested on: methionine-choline deficient diet rat model of nonalcoholic steatohepatitis; assay: Methionine-choline deficient diet rat model of nonalcoholic steatohepatitis; format: in vivo; conditions: repeat oral administration at 1000 mg/kg; by suppressing inflammation and oxidative stress
rats = assay: Lipid lowering in rats; format: in vivo, rat
[4] = tested on: central nervous, autonomic nervous, respiratory and cardiovascular systems; assay: Safety pharmacology studies; format: in vivo; conditions: oral doses up to 3000 mg/kg
platelets from rats = assay: Platelet anti-aggregation, rat platelets; format: cell-based
platelets from rabbits = assay: Platelet anti-aggregation, rabbit platelets; format: cell-based
[5] = tested on: mouse diet-induced hepatic steatosis model; assay: Mouse diet-induced hepatic steatosis model; format: in vivo; conditions: repeat oral administration at ≧0.1 mg/g
[6] = tested on: galactosamine-induced steatohepatitis mouse model; assay: Galactosamine-induced steatohepatitis mouse model; format: in vivo; conditions: oral administration at 1000 mg/kg; by suppressing triglyceride accumulation
rabbits = assay: Lipid lowering in rabbits; format: in vivo, rabbit

CC/C=C\C/C=C\C/C=C\C/C=C\C/C=C\CCCC(=O)O [EPA, eicosapentaenoic acid]
Inhibition of CYP450 (CYP450): unlikely to inhibit

CC/C=C\C/C=C\C/C=C\C/C=C\C/C=C\CCCC(=O)OCC [^14C-EPA-E]
Unchanged EPA-E in the plasma or tissues ([1]; after oral administration of 14C-EPA-E to the rat, liver, fat, heart and brain): no unchanged EPA-E was found | Distribution of radioactivity in body tissues ([1]; rats, relatively high levels in brown fat, adrenal, liver and pancreas): widely distributed

CC/C=C\C/C=C\C/C=C\C/C=C\C/C=C\CCCC(=O)OCC [EPA-E, ethyl all-cis-5,8,11,14,17-eicosapentaenoate]
EPA-E and EPA in feces ([2]; derived from the unabsorbed drug, no DPA or DHA detected): detected | EPA-E, EPA, DPA or DHA in the urine ([2]; species not given): not detected | Elasticity of arteries (arteries in rabbits): preserve the elasticity of arteries | Serum EPA/AA ratios, patients with sFas≦9.5 ng/mL versus sFas >9.5 ng/mL (subjects with NASH; Day 365, FIG. 21 and FIG. 22): higher | Response rate (subjects with NASH; fasting glucose=<125 mg/dL and HbA1c=<6.4, Study arm 1, FIG. 4): higher response to rate | Efficacy, response rate (subjects with NASH; fasting glucose=<125 mg/dL and HbA1c=<6.4, Study arm 2, FIG. 4): equivalent to that of Study arm 1 | Efficacy, NASH response (change of NAS score) (subjects with NASH; patients with GGT levels=<33 IU/L, Study arm 1 and 2, FIG. 9): higher efficacy | Efficacy, preliminary endpoint achievement rate (subjects with NASH; patients with GGT levels=<60 IU/L, Study arm 1 and 2, FIG. 8): higher efficacy | Efficacy, improvement of serum EPA/AA ratio on Day 365 (subjects with NASH; patients with GGT ≦33 IU/L, Study arm 2, FIG. 10): higher efficacy | Efficacy, proportion of responders (subjects with NASH; patients with HbA1c=<6.4, Study arm 1, FIG. 2): higher efficacy | Efficacy, proportion of responders (subjects with NASH; patients with HbA1c=<6.4, Study arm 2, FIG. 2): equivalent to that of Study arm 1 | Efficacy, proportion of responders (subjects with NASH; patients with NASH risk score equal to or less than 4.0, especially 3.0, 1800 mg EPA-E, TID, FIG. 19): higher efficacy | Efficacy, proportion of responders (subjects with NASH; patients with fasting glucose =<125 mg/dL, Study arm 1, FIG. 3): higher efficacy | Efficacy, proportion of responders (subjects with NASH; patients with fasting glucose =<125 mg/dL, Study arm 2, FIG. 3): equivalent to that of Study arm 1 | Efficacy, proportion of responders (subjects with NASH; patients with sFas equal to or less 10.0 ng/mL and/or M30 equal to or less 1500 U/L, 1800 mg EPA-E, TID and 2700 mg EPA-E, TID, FIG. 18): higher efficacy | Efficacy, proportion of responders (subjects with NASH; patients with serum M30 equal to or less 1500 U/L, especially 900 U/L, more especially 500 U/L, 1800 mg EPA-E, TID, FIG. 17): higher efficacy | Efficacy, proportion of responders (subjects with NASH; patients with serum sFas equal to or less 9.5 ng/mL, 1800 mg EPA-E, TID, FIG. 14): higher efficacy | Efficacy, NASH response (change of NAS score) (subjects with NASH; patients with serum sFas equal to or less 9.5 ng/mL, Study arm 1 (1800 mg EPA-E, TID), FIG. 16): higher efficacy | Efficacy, proportion of responders (subjects with NASH; patients with serum sFas equal to or less 10.0 ng/mL, especially 9.5 ng/mL, 1800 mg EPA-E, TID, FIG. 15): higher efficacy | Efficacy, proportion of responders (subjects with NASH; patients without biliary tract disease markers (GGT ≦33 IU/L), Study arm 1 (600 mg TID) and Study arm 2 (900 mg TID), FIG. 7): higher efficacy | Efficacy, proportion of responders (NAS Score ≦3 or improvement of ≧2 across at least 2 of NAS components) (subjects with NASH; patients without diabetes or with mild diabetes compared to diabetic patients, Study arm 1, FIG. 1): higher efficacy | Efficacy, proportion of responders (subjects with NASH; patients without diabetes or with mild diabetes, Study arm 2 (900 mg EPA-E, TID), FIG. 1): equivalent to that of Study arm 1 | Lipid lowering (hamsters): lower lipids | Effect on platelet aggregation (platelets from humans): anti-aggregation effects | Fibrosis [3]: inhibited fibrosis | Lipid lowering (rats): lower lipids | Effect on central nervous, autonomic nervous, respiratory and cardiovascular systems [4]: no effect | Effect on platelet aggregation (platelets from rats): anti-aggregation effects | Effect on platelet aggregation (platelets from rabbits): anti-aggregation effects | Fat accumulation [5]: suppressed fat accumulation | Hepatic SREBP-1c levels [5]: suppressing hepatic SREBP-1c levels | Absorption ([1]; single oral dose of 14C-EPA-E 30-1000 mg/kg, rats, mainly through the lymphatic route): well-absorbed | Progression of steatohepatitis [6]: retarded progression of steatohepatitis | Lipid lowering (rabbits): lower lipids
